Results published in patent US20100093642A1, “NOVEL POLYPEPTIDES” (priority 2006, published 2010).
Converted amounts (≈) assume the structure as drawn. Residues, ends and D or L forms follow the SMILES beside them. No end group written: not given here.

Key:
Rhodotorula sp. = settings: 48 h
Method in brief: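 Broth microdilution in half-strength potato dextrose broth, final 2×10^5 spores per ml, peptides in two-fold dilutions from 50 μM to 0.1 μM final. Incubated in the dark without shaking at 25° C. (37° C. for C. albicans) for 48 h; MIC is lowest concentration giving 50% inhibition of visible growth, scored microscopically.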

[1] = system: murine B lymphoma (reticulum cell sarcoma) cell line A20; format: cell-based; settings: 4 h
Procedure: The cytotoxic effects of the peptides on different human tumour cells were measured using the MTT colorimetric assay (Mosmann, 1983). MIT (3-(4-5-dimethylthiazol-2-yl)-2,5-diphenyl tetrazolium bromide) is a soluble tetrazolium salt yielding a yellow solution when prepared in media or salt solutions lacking phenol red. Dissolved MIT is converted to an insoluble purple formazan by cleavage of the tetrazolium ring by dehydrogenase enzymes. This water insoluble formazan can be solubilized using isopropanol or other solvents and the dissolved material is measured spectrophotometrically. The absorbance was measured as a function of concentration of converted dye. The conversion of the soluble dye to the insoluble purple formazan is utilized in assays for measurement of cell proliferation. […] We used this assay to measure the degree of cell death caused by the peptides.
CT26 and A20 were maintained in RPMI-1640 medium supplemented with 10% heat inactivated FBS and 1% L-glutamine in a humidified atmosphere of 5% CO2 at 37° C. The human embryonic fibroblast cell line, MRC-5, was cultured as a monolayer in MEM medium, under the same conditions as described for the tumour cell lines. CT26 and MRC-5 cells to be used in the assay were grown to a minimum of 75% confluency, trypsinated and split to single cell suspension, counted and centrifuged at 1500 rpm for 7 min. The cell pellet was resuspended to a concentration of 1-2×10^5 cells/ml in RPMI-1640 medium without FBS and L-glutamine-L-alanine (assay-medium). The A20 cells were grown in suspension and adjusted to a concentration of 6×10^5 cells/ml in assay medium. All cell lines were routinely tested for mycoplasma infection using a PCR-based mycoplasma detection kit (MycoSensor PCR Assay Kit, Stratagene), following the supplier's instructions. All cell lines were mycoplasma free.
The cytotoxicity was measured using the MTT method (Mosmann, 1983), with minor modifications. The adherent cells (CT26 and MRC-5) were applied in 96-well culture plates in a volume of 100 μl assay medium and incubated at 37° C. for 24 hours. The A20 cells were applied to the microtiter plates just prior to testing. The medium was removed and the cells were treated with 100 μl of peptide solution (concentrations ranging from 0 to 400 μg/ml), diluted in serum-free medium, and the plates were incubated at 37° C. for 4 hours. Cells treated with Triton X-100 (1%) were used as positive control (100% killing) whereas cells plus medium only were used as negative control. Following the incubation period, 10 and 20 μl MTT (5 mg/ml, dissolved in PBS) were added to each well in the adherent cells (CT26 and MRC-5) and the A20 cells, respectively. After further incubation for 2 hours, a volume of 70 μl of the supernatant was removed and 100 μl acid alcohol (0.04 M HCl in isopropanol) added to each well in the adherent cell lines. For the cells grown in suspension (A20), a volume of 130 μl of the supernatant was removed and 100 μl acid alcohol was added. The plates were placed on a shaker for 1 hour at room temperature and read spectrophotometrically at 590 nm in a microtiter plate reader (Thermomax Molecular devices, New Jersey, USA). Cell survival (%, averaging at least 2 parallels) and IC50 values were estimated as described above.

Penicillum rogveforti = test: Antifungal MIC; format: cell-based; settings: filamentous fungi; more than 50% inhibition of visible growth, 48 h
Procedure: (§1) The various derivates of P17 (brominated and non-brominated) were tested for their ability to inhibit fungal growth of the yeast strains Saccaharomyces cerevisiae sp, Candida albicans (ATCC 10231) and Rodotorula sp., and the filamentous strains Botrytis cinerea 101, Penicillium rogveforti, and Fusarium sp. All strains, except C. albicans, were a gift from Prof. A. Tronsmo (The Norwegian University of Life Sciences, Ås, Norway). The fungi were cultivated on potato dextrose agar, supplemented with 2% glucose, at room temperature. Before antifungal testing, the fungi were dissolved in potato dextrose broth (Difco) at half-strength. Cell concentration was determined and adjusted after counting in a Bürker chamber. The filamentous fungi were filtered through a piece of cotton before counting. An aliquot of 50 μl of fungal spores (final concentration 2×10^5 spores per ml) were inoculated in microtiter plates (96 wells) along with 50 μl peptide solution. Peptides, dissolved in distilled water, were tested at final concentrations (two-fold dilutions) ranging from 50 μM to 0.1 μM. Cultures were grown in the dark (without shaking) and with a moist chamber at 25° C. (37° C. for C. albicans). Growth inhibition was determined microscopically after 48 h of incubation. MIC was determined as the lowest concentration of peptide resulting in 50% inhibition of visible growth.

Fusarium sp. = test: Antifungal MIC; format: cell-based; settings: filamentous fungi; more than 50% inhibition of visible growth, 48 h
Procedure: as §1

[2] = system: Listonella (Vibrio) anguillarum, serotype O2 (FT 1801); format: cell-based
Method in brief: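 Peptide fractions were incubated with actively growing bacteria in Mueller Hinton medium at a starting concentration of 3×10^4 cells per ml. Growth was monitored continuously in a Bioscreen C reader; polymyxin B served as reference.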

Compound	Minimal inhibitory concentration (MIC), Rhodotorula sp. (Rhodotorula sp.) [µM]	IC50 [1] [µM]	Minimal inhibitory concentration (MIC), Penicillum rogveforti (Penicillum rogveforti) [µM]	Minimal inhibitory concentration (MIC), Fusarium sp. (Fusarium sp.) [µM]	Minimal inhibitory concentration, L. anguillarum [2] [µM]
CC[C@H](C)[C@H](NC(=O)CNC(=O)[C@H](CO)NC(=O)[C@H](CCCCN)NC(=O)[C@@H](NC(=O)[C@H](C)NC(=O)[C@H](Cc1c[nH]cn1)NC(=O)[C@H](CO)NC(=O)[C@@H](NC(=O)[C@H](CCCCN)NC(=O)[C@H](Cc1c[nH]cn1)NC(=O)[C@H](Cc1ccccc1)NC(=O)[C@@H](NC(=O)[C@H](CCCCN)NC(=O)[C@H](CCCCN)NC(=O)[C@H](Cc1ccccc1)NC(=O)C(Cc1c[nH]c2ccc(Br)cc12)NC(=O)CN)[C@@H](C)O)C(C)C)C(C)C)C(=O)N[C@@H](Cc1c[nH]cn1)C(=O)N[C@@H](C)C(=O)NCC(=O)N[C@@H](CCC(N)=O)C(=O)N[C@@H](CCCNC(=N)N)C(=O)NCC(=O)N[C@@H](CS)C(=O)N[C@@H](CO)C(=O)N[C@@H](C)C(=O)N[C@@H](CC(C)C)C(=O)NCC(=O)N[C@@H](Cc1ccccc1)C(=O)O (stereo partly shown) [P17 HC-Br] (HELM PEPTIDE1{G.[O=C(C(Cc1c[nH]c2ccc(Br)cc12)N[*:1])[*:2]].F.K.K.T.F.H.K.V.S.H.A.V.K.S.G.I.H.A.G.Q.R.G.C.S.A.L.G.F}$$$$V2.0)	3.12 (≈ 10.4 µg/mL)	24.1	6.25 (≈ 20.8 µg/mL)	1.56 (≈ 5.18 µg/mL)	0.78 (≈ 2.59 µg/mL)
GWFKKTFHKVSHAVKSGIHAGQRGCSALGF [P17 HC]	3.12	3.9	6.25	1.56	0.78
